Measured values published in US7468194B1, “Preparations for the application of anti-inflammatory agents” (Euro-Celtique, S.A., priority 1999, dated 2008).

Tested on: adult articular cartilage
Assay: effect on cartilage of sesamoid bones, release of proteoglycan and COMP fragments
Type: cell-based, bovine
Conditions: 10 min treatment at 37° C., undiluted or diluted 1:10, 1:100, 1:1000 with Ringer's solution; compared with Ringer's solution control
Procedure: In an unpublished study, the effects of povidone iodine in non-liposomal form was studied on adult articular cartilage.
Sesamoid bones were dissected within 2-4 h after slaughter from bovine metacarpo-phalangeal joints of adult animals under aseptic conditions. The cartilage from sesamoid bones of a particular animal is uniform with respect to glycosaminoglycan synthesis, glycosaminoglycan content, and proteoglycan composition. Each experimental group consisted of eight sesamoid bones from the same animal. The sesamoid bones were washed in 10 ml cold sterile Ringer's solution for 10 min, incubated respectively in 10 ml of sterile Ringer's solution (control), PVP-iodine, or PVP-iodine dilutions with Ringer's solution (1:10, 1:100, or 1:1000) at 37° C. for 10 min in a humidified atmosphere of 5% CO2 in air, and subsequently washed again for 5×5 min in 10 ml Ringer's solution in each case. […] The culture media of sesamoid bones and extracts of cartilage plugs were used for the quantitative and qualitative characterization of proteoglycans and COMP (cartilage oligomeric matrix protein), because an increased release of fragments of these cartilage matrix constituents equals to a catabolic pathway.

poly(1-vinyl-2-pyrrolidin-2-one)-iodine complex [PVP-iodine]
proteolytic fragmentation of cartilage matrix constituents (proteoglycans, COMP): no increased proteolytic fragmentation
